{"source": "patent US20260231968A1", "about": "“AN ECO-FRIENDLY, SUSTAINABLE FOOD PRESERVATIVE” (priority 2023, published 2026)", "molecules": {"B1": {"name": "S100a12: S100 protein; human S100a12 sequence SEQ ID NO: 6 (protein, listed as Homo sapiens)", "chain": "MTKLEEHLEGIVNIFHQYSVRKGHFDTLSKGELKQLLTKELANTIKNIKDKAVIDEIFQGLDANQDEQVDFQEFISLVAIALKAAHYHTHKE"}, "B2": {"name": "S100a8: Recombinant S100 protein; human S100a8 sequence SEQ ID NO: 3 (protein, listed as Homo sapiens)", "chain": "MLTELEKALNSIIDVYHKYSLIKGNFHAVYRDDLKKLLETECPQYIRKKGADVWFKELDINTDGAVNFQEFLILVIKMGVAAHKKSHEESHKE"}, "B3": {"name": "S100a9: Recombinant S100 protein; human S100a9 sequence SEQ ID NO: 4 (protein, listed as Homo sapiens)", "chain": "MTCKMSQLERNIETIINTFHQYSVKLGHPDTLNQGEFKELVRKDLQNFLKKENKNEKVIEHIMEDLDTNADKQLSFEEFIMLMARLTWASHEKMHEGDEGPGHHHKPGLGEGTP"}}, "key": {"Aspergillus flavus": {"system": "Aspergillus flavus", "experiment": "Microbial Growth Inhibition Test, broth microdilution optical method", "type": "cell-based", "conditions": "12 μM", "experimental": "The IC90 of psoriasin for several microorganisms was determined by Microbial Growth Inhibition Tests. The tests were performed using the Broth Microdilution Optical Method based on standardized protocols M27 (yeasts) and M38 (filamentous fungi) of the Clinical and Laboratory Standards Institute. […] MOPS, LB (Luria-Bertani), and TSB ([…]) medium types were used, depending on the species being tested. The absorbance was calibrated to each species, and was measured between 450 nm to 650 nm.\nIn addition, ethyl lauroyl arginate (LAE), a commercially available food preservative, was tested in similar growth conditions as a reference."}, "[1]": {"system": "initial microbial load of plant-based meat substitute", "experiment": "Microbial load of plant-based meat substitute during storage", "type": "cell-based", "experimental": "The ability of psoriasin to extend the shelf life of a plant-based meat substitute was examined under standard storage conditions. Three groups, each stored as an open package at […], were assessed over the course of 16 days. The groups included i) an untreated control, ii) a nisin-treated sample, and iii) a psoriasin-treated sample at 0.65%. A single source of the plant-based meat substitute was used and each group was reproduced in triplicate. The microbial load of the plant-based meat substitute samples was based on the initial microbial load without the addition of antibiotics and without the addition of mold, yeast or bacteria. Samples from each group were taken on days 1, 3, 5, 10, 11 and 16 and total CFU count was determined by plating on LB and PDA agar petri dishes."}, "C. albicans": {"system": "C. albicans", "experiment": "C. albicans growth in RPMI-MOPS with S100a12", "type": "cell-based, Candida albicans", "conditions": "30° C, approximately 19 hours", "experimental": "C. albicans cells in RPMI-MOPS were incubated in a 96-well plate at 30° C. with S100a12 at concentrations of 0.32, 2.5, 5 and 20 μM (FIG. 11). Optical density was measured every 10 minutes by absorbance at 600 nm over the course of approximately 19 hours."}, "E. coli BL21 cells": {"system": "E. coli BL21 cells", "experiment": "E. coli growth in LB with S100a8 / S100a9", "type": "cell-based", "conditions": "37° C; for inhibition of E. coli growth: 0.18 μM to 50 μM", "experimental": "E. coli cells in LB media were incubated in a 96-well plate at 37° C. with S100a8 (FIG. 10A) or S100a9 (FIG. 10B) at concentrations varying from 0.18 μM to 50 μM. Optical density was measured every 10 minutes by absorbance at 600 nm over the course of approximately 19 hours. […] In addition, the same experiment was performed using varying equimolar concentrations of S100a8 and S100a9 that were pre-incubated for two hours at 4° C. under constant shaking."}}, "data": [{"molecule": "CCCCCCCCCCCC(=O)N[C@@H](CCCN=C(N)N)C(=O)OCC", "note": "[LAE, ethyl lauroyl arginate, reference compound]", "values": [{"measurement": "inhibition of A. flavus growth", "setting": "Aspergillus flavus", "value": "approximately 40%"}]}, {"molecule": "nisin [reference compound]", "values": [{"measurement": "Yeast & Mold Count", "setting": "[1]; Day 1", "value": "2 × 10^2"}, {"measurement": "Total CFU count", "setting": "[1]; Day 1, open package, psoriasin 0.65%", "value": "1.2 × 10^4 CFU"}, {"measurement": "Total CFU count", "setting": "[1]; Day 3", "value": "1.2 × 10^4 CFU"}, {"measurement": "Yeast & Mold Count", "setting": "[1]; Day 3", "value": "2 × 10^2"}, {"measurement": "Total CFU count", "setting": "[1]; Day 5", "value": "5 × 10^4 CFU"}, {"measurement": "Yeast & Mold Count", "setting": "[1]; Day 5", "value": "1.4 × 10^3"}, {"measurement": "Total CFU count", "setting": "[1]; Day 10", "value": "1.8 × 10^8 CFU"}, {"measurement": "Yeast & Mold Count", "setting": "[1]; Day 10", "value": "1.47 × 10^4"}, {"measurement": "Total CFU count", "setting": "[1]; Day 11", "value": "2.35 × 10^8 CFU"}, {"measurement": "Yeast & Mold Count", "setting": "[1]; Day 11", "value": "1.46 × 10^4"}, {"measurement": "Total CFU count", "setting": "[1]; Day 16", "value": "1.28 × 10^10 CFU"}, {"measurement": "Yeast & Mold Count", "setting": "[1]; Day 16", "value": "3.2 × 10^4"}]}, {"molecule": "B1", "values": [{"measurement": "concentration with significant inhibition of C. albicans growth", "setting": "C. albicans", "value": "≥ 0.32", "unit": "µM"}]}, {"molecule": "B2", "values": [{"measurement": "inhibition of E. coli growth", "setting": "E. coli BL21 cells", "value": "Inhibit Growth of E. coli BL21 Cells"}, {"measurement": "concentration giving full inhibition of E. coli growth", "setting": "E. coli BL21 cells; approximately 19 hours, OD 600 nm", "value": "≤ 1.5", "unit": "µM"}]}, {"molecule": "B3", "values": [{"measurement": "inhibition of E. coli growth", "setting": "E. coli BL21 cells", "value": "Inhibit Growth of E. coli BL21 Cells"}]}]}
